This test concerns HIV-IIIb. The test is described as follows: Test A: Antiviral Assays in MT4 Cells. Type of test: cell-based. As to conditions: MT-4 cells infected with HIV-IIIb, 5 days incubation, CellTiter-Glo readout. Here is the method: The antiviral properties of a compound disclosed herein may be determined using Test A described below.
Test A: Antiviral Assays in MT4 Cells
For the antiviral assay utilizing MT-4 cells, 0.4 μL of […] test concentration of 3-fold serially diluted compound in DMSO was added to 40 μL of cell growth medium (RPMI 1640, 10% FBS, 1% penicillin/Streptomycin, 1% L-Glutamine, 1% HEPES) in each well of 384-well assay plates (10 concentrations) in quadruplicate.
1 mL aliquots of 2×10e6 MT-4 cells are pre-infected for 1 and 3 hrs respectively, @ 37° C. with 25 μL (MT4) or of either cell growth medium (mock-infected) or a fresh 1:250 dilution of an HIV-IIIb concentrated ABI stock (0.004 m.o.i. for MT4 cells). Infected and uninfected cells are diluted in cell growth medium and 35 μL of 2000 (for MT4) cells is added to each well of the assay plates.
Assay plates were then incubated in a 37° C. incubator. After 5 days of incubation, 25 μl of 2× concentrated CellTiter-Glo™ Reagent (catalog # G7573, Promega Biosciences, Inc., Madison, Wis.) was added to each well of the assay plate. Cell lysis was carried out by incubating at room temperature for 2-3 min and then chemiluminescence was read using the Envision reader (PerkinElmer).
A general note: Cellular ATP, detected with luciferase, serves as a proxy for viable cell number.

Where [1] appears, read: Human immunodeficiency virus 1, IIIB, MT4, 120 h, Table I.
Setting [2] is: Human immunodeficiency virus 1, IIIB, MT4, 120 h, Table II.

One may read the EC50 as the concentration at which the effect is half-maximal. High values mean a less potent agent, low ones a more potent agent. On to `Cc1cc2ccc(C#CC(O)(c3ccccc3)C(F)(F)F)cc2c(-c2ccc(Cl)cc2)c1[C@H](OC(C)(C)C)C(=O)O` (stereo partly drawn) [Example 9, (2S)-2-tert-butoxy-2-(1-(4-chlorophenyl)-3-methyl-7-(4,4,4-trifluoro-3-hydroxy-3-phenylbut-1-ynyl)naphthalen-2-yl)acetic acid], for which the midpoint of the response under setting [1], the EC50, lay at 186 nM.

On to `Cc1cc2ccc(C#CC(C)(O)c3ccccn3)cc2c(-c2ccc(Cl)cc2)c1[C@H](OC(C)(C)C)C(=O)O` (stereo partly drawn) [Example 10, (2S)-2-tert-Butoxy-2-(1-(4-chlorophenyl)-7-(3-hydroxy-3-(pyridin-2-yl)but-1-ynyl)-3-methylnaphthalen-2-yl)acetic acid], for which a half-maximal effect under setting [1] (EC50) was put at 62 nM. The same measure, in the same setting: with `Cc1cc2ccc(C#CC(C)(O)c3cccnc3)cc2c(-c2ccc(Cl)cc2)c1[C@H](OC(C)(C)C)C(=O)O` (stereo partly drawn) [Example 11, (2S)-2-tert-Butoxy-2-(1-(4-chlorophenyl)-7-(3-hydroxy-3-(pyridin-3-yl)but-1-ynyl)-3-methylnaphthalen-2-yl)acetic acid] the figure was 24 nM; with `Cc1cc2ccc(C#CC(C)(O)c3ccncc3)cc2c(-c2ccc(Cl)cc2)c1[C@H](OC(C)(C)C)C(=O)O` (stereo partly drawn) [Example 12, (2S)-2-tert-Butoxy-2-(1-(4-chlorophenyl)-7-(3-hydroxy-3-(pyridin-4-yl)but-1-ynyl)-3-methylnaphthalen-2-yl)acetic acid], 32 nM; with `Cc1nc(C)c(C(C)(O)C#Cc2ccc3cc(C)c([C@H](OC(C)(C)C)C(=O)O)c(-c4ccc(Cl)cc4)c3c2)s1` (stereo partly drawn) [Example 13, (2S)-2-tert-Butoxy-2-(1-(4-chlorophenyl)-7-(3-(2,4-dimethylthiazol-5-yl)-3-hydroxybut-1-ynyl)-3-methylnaphthalen-2-yl)acetic acid], 65 nM. Regarding `Cc1ccc2c(-c3ccc4c5c(ccnc35)CCO4)c(C(OC(C)(C)CF)C(=O)O)c(C)cc2c1` (centres unmarked) [Example 65], under setting [2], the midpoint of the response, the EC50, lay at 12.1 nM.

`Cc1cc2c(C)c(-c3cnc(N)nc3)ccc2c(-c2ccc3c4c(ccnc24)CCO3)c1[C@H](OC(C)(C)C)C(=O)O` [Example 74]: the midpoint of the response (Table II), the EC50, lay at 37800 nM. For the compound `Cc1cc2ccc(-c3cccc(-c4ccc5c(cnn5C)c4)c3)cc2c(-c2ccc(Cl)cc2)c1[C@H](OC(C)(C)C)C(=O)O` [Example 88], the concentration for a half-maximal effect (EC50) under setting [2] came out at 3490 nM. Compound `Cc1cc2ccccc2c(-c2ccc3c4c(ccnc24)CCO3)c1C(OC(C)(C)CCl)C(=O)O` (centres unmarked) [Example 100] registered an EC50 under setting [2] of 161 nM. Still for that read-out and setting: in the case of `Cc1cc2ccccc2c(-c2ccc3c4c(ccnc24)CCO3)c1C(OC(C)(C)CF)C(=O)O` (centres unmarked) [Example 103] it was 30.7 nM. Same read-out and setting: with `Cc1cc2ccccc2c(-c2ccc3c4c(ccnc24)CCO3)c1C(OC(C)(CF)CF)C(=O)O` (centres unmarked) [Example 106] the figure was 40.7 nM.

The record behind these values is patent US9284323B2, “Naphthalene acetic acid derivatives against HIV infection” (Gilead Sciences, Inc., priority 2012, dated 2016).
